Laboratory results published in PubChem BioAssay (NCI).
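Tested at 5 concentrations; 48 h exposure; 96-well plates; endpoints linearly interpolated, else capped at highest concentration. At the TGI there is no net growth.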

Experiments:
Assay in all cases: NCI tumour cell line growth inhibition, 48 h
KM12 colon = tested on: KM12 colon
TK-10 renal = tested on: TK-10 renal
SNB-19 CNS = tested on: SNB-19 CNS
SF-295 CNS = tested on: SF-295 CNS
OVCAR-5 ovarian = tested on: OVCAR-5 ovarian
HCC-2998 colon = tested on: HCC-2998 colon
SW-620 colon = tested on: SW-620 colon
MALME-3M melanoma = tested on: MALME-3M melanoma
T-47D breast = tested on: T-47D breast
COLO 205 colon = tested on: COLO 205 colon
NCI-H23 lung = tested on: NCI-H23 lung
DU-145 prostate = tested on: DU-145 prostate
CAKI-1 renal = tested on: CAKI-1 renal
IGROV1 ovarian = tested on: IGROV1 ovarian
MDA-MB-435 = tested on: MDA-MB-435
786-0 renal = tested on: 786-0 renal
SK-MEL-5 melanoma = tested on: SK-MEL-5 melanoma
NCI-H522 lung = tested on: NCI-H522 lung
SN12C renal = tested on: SN12C renal

Compound | TGI (KM12 colon) | TGI (TK-10 renal) | TGI (SNB-19 CNS) | TGI (SF-295 CNS) | TGI (OVCAR-5 ovarian) | TGI (HCC-2998 colon) | TGI (SW-620 colon) | TGI (MALME-3M melanoma) | TGI (T-47D breast) | TGI (COLO 205 colon) | TGI (NCI-H23 lung) | TGI (DU-145 prostate) | TGI (CAKI-1 renal) | TGI (IGROV1 ovarian) | TGI (MDA-MB-435) | TGI (786-0 renal) | TGI (SK-MEL-5 melanoma) | TGI (NCI-H522 lung) | TGI (SN12C renal)
C=C1[C@H](OC(=O)C(C)C)[C@]23CC4(O)[C@@H]5[C@@]6(C)CCC[C@]57C([C@@H]2C[C@@]1(O)[C@H](O)[C@@H]73)N4C6 | > 100 µM | > 100 µM | > 100 µM | > 100 µM | > 100 µM | 72.3 µM | > 100 µM | > 100 µM | > 100 µM | > 100 µM | > 100 µM | > 100 µM | > 100 µM | > 100 µM | > 100 µM | > 100 µM | > 100 µM | > 100 µM | 
CC(=O)Nc1ccc(N=C2C(c3ccccc3)=C(SC3=C(c4ccccc4)C(=Nc4ccc(NC(C)=O)cc4)c4ccccc43)c3ccccc32)cc1 | 89.5 µM | > 100 µM | > 100 µM | > 100 µM | > 100 µM | > 100 µM | > 100 µM | > 100 µM | 48.4 µM | > 100 µM | 99.8 µM | > 100 µM | > 100 µM | > 100 µM | > 100 µM | > 100 µM | 31.3 µM | 97.7 µM | > 100 µM
O=C1CS(=O)(=O)C(c2cccc(Oc3ccccc3)c2)N1c1cccc(Cl)c1 (stereo unspecified) | > 100 µM | 63.1 µM | > 100 µM | > 100 µM | > 100 µM | 15.7 µM | > 100 µM | 52.6 µM | > 100 µM | 41.1 µM | > 100 µM | > 100 µM | 83.5 µM | 69.9 µM | 65.8 µM | 40.3 µM | 31.1 µM | 45.2 µM | > 100 µM
Cc1n[nH]c(=O)n1C1CCCC1 | > 100 µM | > 100 µM | > 100 µM | > 100 µM | > 100 µM | > 100 µM | > 100 µM | > 100 µM | > 100 µM | > 100 µM | > 100 µM | > 100 µM | > 100 µM | > 100 µM | > 100 µM | > 100 µM | > 100 µM | > 100 µM | > 100 µM
COC(=O)[C@H](Cc1ccccc1)NC(=O)N1CCCN(C(=O)N[C@@H](Cc2ccccc2)C(=O)OC)CCCN(C(=O)N[C@@H](Cc2ccccc2)C(=O)OC)CCC1 | > 100 µM | 65.4 µM | 74.8 µM | 37.6 µM | 33 µM | 38.6 µM | 39.7 µM | 34.1 µM | 34.8 µM | 34.8 µM | 53.3 µM | 34 µM | > 100 µM | 31.3 µM | 54.7 µM | 32.1 µM | 35.9 µM | 35.2 µM | 39.1 µM
N#CC(c1ccnc(Cl)n1)c1nc2ccccc2s1 (stereo unspecified) | > 45.9 µM | > 60.7 µM | > 75.1 µM | 31.5 µM | > 92.5 µM | 46.8 µM | > 70.7 µM | > 26.5 µM | 22.4 µM | 24.6 µM | 15.6 µM | > 100 µM | > 45.4 µM | > 53.2 µM | > 100 µM | 16.1 µM | 3.1 µM | 11.1 µM | 10.1 µM
COC(=O)CC1C(COC(C)=O)OC(n2cc(C)c(=O)[nH]c2=O)C1OC(C)=O (stereo unspecified) | > 100 µM | > 100 µM | > 100 µM | > 100 µM | > 100 µM | > 100 µM | > 100 µM | > 100 µM | > 100 µM | > 100 µM | > 100 µM | > 100 µM | > 100 µM | > 100 µM | > 100 µM | > 100 µM | > 100 µM | > 100 µM | > 100 µM
O=C(c1ccco1)N(Cc1ccco1)C(=S)Nc1ccccc1 | > 100 µM | > 77.4 µM | > 100 µM | > 84.1 µM | > 100 µM | 98.1 µM | 32.2 µM | 44.2 µM | 54.1 µM | 26.8 µM | 38.1 µM | > 100 µM | 22.1 µM | 42.2 µM | 30.2 µM | 22.7 µM | 35.9 µM | 37.7 µM | 45.4 µM
O=c1[nH]cnc2c1sc1nc3ccccc3n12 | 54.9 µM | > 100 µM | > 100 µM | > 100 µM | > 100 µM | > 100 µM | > 100 µM | > 100 µM | > 100 µM | > 100 µM | > 100 µM | > 100 µM | > 100 µM | > 100 µM | > 100 µM | > 100 µM | > 100 µM | > 100 µM | 
Cc1ccc(Cc2n[nH]c(=O)n2/N=C\CC/C=N\n2c(Cc3ccc(C)cc3)n[nH]c2=O)cc1 | > 100 µM | > 100 µM | > 100 µM | > 100 µM | > 100 µM | > 100 µM | > 100 µM | > 100 µM | > 100 µM | > 100 µM | 84.6 µM | > 100 µM | > 100 µM | > 100 µM | > 100 µM | 41 µM | > 100 µM | > 100 µM | > 100 µM
Cc1nc2ccc(Cl)cc2c2c1CCS2 | > 100 µM | > 100 µM | > 100 µM | > 100 µM | > 100 µM | > 100 µM | > 100 µM | > 100 µM | > 100 µM | > 100 µM | > 100 µM | > 100 µM | > 100 µM | > 100 µM | > 100 µM | > 100 µM | 77.7 µM | > 100 µM | > 100 µM
O=Cc1c2ccccc2n2ccc3c4ccccc4[nH]c3c12 | > 10 µM | > 10 µM | > 10 µM | > 10 µM | > 10 µM | > 10 µM | > 10 µM | > 10 µM | > 10 µM | > 10 µM | > 10 µM | > 10 µM | > 10 µM | > 10 µM | > 10 µM | > 10 µM | > 10 µM | > 10 µM | > 10 µM
